Data: ChEMBL document CHEMBL1629458, “Synthesis of phosphatidylinositol 3-kinase (PI3K) inhibitory analogues of the sponge meroterpenoid liphagal” (J Med Chem, 2010)

Tests used:
[1] = target: Phosphatidylinositol 4,5-bisphosphate 3-kinase catalytic subunit alpha isoform (Homo sapiens, UniProt P42336); experiment: Inhibition of human PI3Kalpha expressed in Sf9 cells by fluorescent polarization assay
[2] = target: Phosphatidylinositol 4,5-bisphosphate 3-kinase catalytic subunit gamma isoform (Homo sapiens, UniProt P48736); experiment: Inhibition of human PI3Kgamma expressed in Sf9 cells by fluorescent polarization assay
[3] = species: Homo sapiens; experiment: Selectivity for human PI3Kalpha over human PI3Kgamma

Sequence of Phosphatidylinositol 4,5-bisphosphate 3-kinase catalytic subunit alpha isoform (P42336 whole entry, canonical isoform): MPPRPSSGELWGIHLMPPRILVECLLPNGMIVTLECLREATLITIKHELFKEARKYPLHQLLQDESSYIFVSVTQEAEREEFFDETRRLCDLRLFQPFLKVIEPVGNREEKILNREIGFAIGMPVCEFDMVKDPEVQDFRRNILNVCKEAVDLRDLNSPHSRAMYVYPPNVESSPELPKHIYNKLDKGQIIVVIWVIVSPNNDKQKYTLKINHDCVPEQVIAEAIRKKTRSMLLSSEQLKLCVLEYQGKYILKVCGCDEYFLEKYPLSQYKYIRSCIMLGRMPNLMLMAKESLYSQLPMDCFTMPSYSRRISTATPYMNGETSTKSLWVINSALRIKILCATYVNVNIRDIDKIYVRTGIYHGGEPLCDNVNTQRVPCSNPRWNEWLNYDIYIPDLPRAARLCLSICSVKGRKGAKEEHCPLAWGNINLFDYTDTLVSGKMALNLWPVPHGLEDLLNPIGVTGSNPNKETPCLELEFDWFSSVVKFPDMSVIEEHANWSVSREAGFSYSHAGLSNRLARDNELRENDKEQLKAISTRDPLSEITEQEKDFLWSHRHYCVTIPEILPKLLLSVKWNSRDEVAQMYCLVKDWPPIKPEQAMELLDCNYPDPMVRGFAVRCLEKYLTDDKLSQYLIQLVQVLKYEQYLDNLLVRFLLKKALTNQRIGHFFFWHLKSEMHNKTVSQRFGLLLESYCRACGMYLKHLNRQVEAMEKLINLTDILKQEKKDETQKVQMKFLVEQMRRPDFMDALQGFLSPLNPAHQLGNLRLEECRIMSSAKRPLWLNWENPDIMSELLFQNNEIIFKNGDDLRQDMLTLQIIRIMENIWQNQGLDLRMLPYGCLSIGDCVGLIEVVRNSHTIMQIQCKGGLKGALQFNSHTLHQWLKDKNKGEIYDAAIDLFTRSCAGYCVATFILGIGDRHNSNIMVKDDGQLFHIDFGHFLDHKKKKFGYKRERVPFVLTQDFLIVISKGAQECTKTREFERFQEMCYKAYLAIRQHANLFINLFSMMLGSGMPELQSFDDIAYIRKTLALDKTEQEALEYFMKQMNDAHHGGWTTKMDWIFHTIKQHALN
Sequence of Phosphatidylinositol 4,5-bisphosphate 3-kinase catalytic subunit gamma isoform (P48736 whole entry, canonical isoform): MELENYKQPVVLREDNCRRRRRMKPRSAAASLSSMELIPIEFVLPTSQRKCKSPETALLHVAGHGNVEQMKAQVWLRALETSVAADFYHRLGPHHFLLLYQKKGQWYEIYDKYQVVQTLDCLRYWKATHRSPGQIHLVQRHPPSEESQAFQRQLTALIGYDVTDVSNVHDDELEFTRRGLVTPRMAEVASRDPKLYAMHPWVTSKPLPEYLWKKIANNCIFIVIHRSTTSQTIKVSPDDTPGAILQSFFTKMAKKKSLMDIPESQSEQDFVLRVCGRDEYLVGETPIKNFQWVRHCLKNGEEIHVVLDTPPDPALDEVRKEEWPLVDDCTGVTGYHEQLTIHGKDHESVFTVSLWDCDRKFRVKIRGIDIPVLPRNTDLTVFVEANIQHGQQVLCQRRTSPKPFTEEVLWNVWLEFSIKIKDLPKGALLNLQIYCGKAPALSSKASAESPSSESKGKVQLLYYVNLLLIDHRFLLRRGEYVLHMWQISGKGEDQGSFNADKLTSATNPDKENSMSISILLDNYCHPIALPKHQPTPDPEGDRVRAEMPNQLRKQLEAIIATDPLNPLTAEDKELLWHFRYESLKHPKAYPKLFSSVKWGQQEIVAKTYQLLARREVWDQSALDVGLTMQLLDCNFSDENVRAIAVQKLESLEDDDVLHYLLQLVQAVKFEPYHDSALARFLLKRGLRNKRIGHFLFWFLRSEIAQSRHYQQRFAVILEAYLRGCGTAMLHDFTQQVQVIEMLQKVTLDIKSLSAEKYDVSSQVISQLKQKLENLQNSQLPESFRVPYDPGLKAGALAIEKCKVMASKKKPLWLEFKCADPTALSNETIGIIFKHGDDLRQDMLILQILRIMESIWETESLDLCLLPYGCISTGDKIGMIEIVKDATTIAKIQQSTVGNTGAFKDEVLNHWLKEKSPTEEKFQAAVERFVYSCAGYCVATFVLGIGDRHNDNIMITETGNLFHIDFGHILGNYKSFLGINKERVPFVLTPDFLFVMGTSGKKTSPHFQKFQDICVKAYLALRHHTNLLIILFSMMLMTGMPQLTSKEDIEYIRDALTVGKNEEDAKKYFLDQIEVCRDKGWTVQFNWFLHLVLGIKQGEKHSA

| Compound | IC50 [1] [nM] | IC50 [2] [nM] | Ratio IC50 [3] |
| --- | --- | --- | --- |
| C[C@@H]1CC[C@H]2C(C)(C)CCC[C@]2(C)c2c1oc1c(C=O)c(O)c(O)cc21 | 100 | 1000 | – |
| C[C@@H]1CC[C@H]2C(C)(C)CCC[C@]2(C)C2=C3C=C(O)C(=O)C(Br)=C3OC21O (stereo partly drawn) | 3300 | > 10000 | – |
| C[C@@H]1CC[C@H]2C(C)(C)CCC[C@]2(C)c2c1oc1c(Br)c(O)ccc21 | 10200 | 5700 | – |
| C[C@@H]1CC[C@H]2C(C)(C)CCC[C@]2(C)c2c1oc1cc(O)ccc21 | > 10000 | > 10000 | – |
| COc1cc2c3c(oc2c(C=O)c1OC)CC[C@H]1C(C)(C)CCC[C@]31C (racemic) | 5120 | 2640 | – |
| COc1cc2c3c(oc2c(C=O)c1O)CC[C@H]1C(C)(C)CCC[C@]31C (racemic) | 1000 | 5150 | – |

Next, values leading:

| IC50 [1] [nM] | IC50 [2] [nM] | Ratio IC50 [3] | Compound |
| --- | --- | --- | --- |
| 2200 | 2200 | – | C[C@H]1CC[C@H]2C(C)(C)CCC[C@]2(C)c2c1oc1cc(O)ccc21 |
| > 10000 | > 10000 | – | COc1ccc2c3c(oc2c1Br)[C@H](C)CC[C@H]1C(C)(C)CCC[C@]31C |
| 7200 | 1900 | – | C[C@@H]1CC[C@H]2C(C)(C)CCC[C@]2(C)c2c1oc1ccc(O)cc21 |
| 700 | 5300 | 7 | C[C@@H]1CCCC(C)(C)C12CC[C@H](C)c1oc3c(Br)c(O)c(O)cc3c12 (mixture of isomers) |
| 1650 | 9570 | – | CC1(C)CCC[C@]2(C)C3=C4C=C(O)C(=O)C=C4OC3(O)CC[C@@H]12 (mixture of isomers) |
| 66 | 1800 | 27 | CC1(C)CCC[C@]2(C)c3c(oc4c(C=O)c(O)c(O)cc34)CC[C@@H]12 (racemic) |
| 700 | 1400 | – | CC1(C)CCC[C@]2(C)c3c(oc4c(C(N)=O)c(O)c(O)cc34)CC[C@@H]12 (racemic) |
